The record followed here is ChEMBL document CHEMBL1141668, “Synthesis and biological activity of imidazopyridine anticoccidial agents: Part II” (Eur J Med Chem, 2008).

Molecules are shown by their SMILES.

Assay [1] has as its system Eimeria acervulina. The experiment in a line: Anticoccidial activity against Eimeria acervulina in chickens assessed as reduction of oocysts at 50 ppm measured after 8 days by ExMAC assay relative to untreated control. It counts as functional. Also on record: scale not given: the % may be the effect or the level left.
The subject of assay [2] is Eimeria tenella. The assay can be described thus: Anticoccidial activity against Eimeria tenella in chickens assessed as reduction of oocysts at 50 ppm measured after 8 days by ExMAC assay relative to untreated control. It is filed as functional. Also on record: scale not given: the % may be the effect or the level left.
The test system of assay [3] is Eimeria mitis. The experiment in a line: Anticoccidial activity against Eimeria mitis in chickens assessed as reduction of oocysts at 50 ppm measured after 8 days by ExMAC assay relative to untreated control. Also on record: scale not given: the % may be the effect or the level left. It is filed as functional.
Assay [4] deals with cGMP-dependent protein kinase (Eimeria tenella, UniProt Q8MMZ8). The experiment in a line: Inhibition of Eimeria tenella cGMP-dependent protein kinase.
cGMP-dependent protein kinase, sequence (Q8MMZ8 whole entry): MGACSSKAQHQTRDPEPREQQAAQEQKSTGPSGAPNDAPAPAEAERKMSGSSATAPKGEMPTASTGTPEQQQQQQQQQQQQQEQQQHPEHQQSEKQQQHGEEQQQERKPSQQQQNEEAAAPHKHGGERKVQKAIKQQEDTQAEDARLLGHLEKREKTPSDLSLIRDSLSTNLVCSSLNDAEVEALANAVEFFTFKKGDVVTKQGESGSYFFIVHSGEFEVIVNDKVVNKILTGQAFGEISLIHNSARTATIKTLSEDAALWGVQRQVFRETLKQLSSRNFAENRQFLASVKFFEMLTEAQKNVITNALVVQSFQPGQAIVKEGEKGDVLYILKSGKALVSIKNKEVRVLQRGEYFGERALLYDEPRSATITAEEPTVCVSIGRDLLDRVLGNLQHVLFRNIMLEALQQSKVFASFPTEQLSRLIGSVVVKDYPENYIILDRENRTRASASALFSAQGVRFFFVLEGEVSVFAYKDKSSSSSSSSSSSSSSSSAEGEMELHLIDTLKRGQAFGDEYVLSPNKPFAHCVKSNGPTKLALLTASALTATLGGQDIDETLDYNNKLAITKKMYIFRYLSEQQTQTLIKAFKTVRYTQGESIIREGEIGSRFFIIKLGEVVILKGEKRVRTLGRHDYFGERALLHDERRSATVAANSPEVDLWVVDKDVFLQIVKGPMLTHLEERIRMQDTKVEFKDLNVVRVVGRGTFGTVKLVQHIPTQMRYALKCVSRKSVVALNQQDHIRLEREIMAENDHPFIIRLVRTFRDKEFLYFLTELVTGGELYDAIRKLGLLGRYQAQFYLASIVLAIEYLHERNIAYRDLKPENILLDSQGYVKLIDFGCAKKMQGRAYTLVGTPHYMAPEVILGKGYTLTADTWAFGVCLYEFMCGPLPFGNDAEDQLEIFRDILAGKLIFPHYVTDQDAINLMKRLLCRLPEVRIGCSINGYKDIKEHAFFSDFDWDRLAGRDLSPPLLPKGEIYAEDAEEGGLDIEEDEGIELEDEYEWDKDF
For assay [5], the system named is Eimeria maxima. The assay can be described thus: Anticoccidial activity against Eimeria maxima in chickens assessed as reduction of oocysts at 50 ppm measured after 8 days by ExMAC assay relative to untreated control. It is filed as functional. More on the design: scale not given: the % may be the effect or the level left.
Assay [6] concerns Eimeria acervulina. The assay can be described thus: Anticoccidial activity against Eimeria acervulina in chickens assessed as reduction of oocysts at 12.5 ppm measured after 8 days by ExMAC assay relative to untreated control. It counts as functional. More on the design: scale not given: the % may be the effect or the level left.
The test system of assay [7] is Eimeria tenella. The assay can be described thus: Anticoccidial activity against Eimeria tenella in chickens assessed as reduction of oocysts at 25 ppm measured after 8 days by ExMAC assay relative to untreated control. It is filed as functional. More on the design: scale not given: the % may be the effect or the level left.
Assay [8] has as its system Eimeria tenella. The assay can be described thus: Anticoccidial activity against Eimeria tenella in chickens assessed as reduction of oocysts at 6 ppm measured after 8 days by ExMAC assay relative to untreated control. It is filed as functional. More on the design: scale not given: the % may be the effect or the level left.
For assay [9], the system named is Eimeria mitis. The assay can be described thus: Anticoccidial activity against Eimeria mitis in chickens assessed as reduction of oocysts at 8 ppm measured after 8 days by ExMAC assay relative to untreated control. More on the design: scale not given: the % may be the effect or the level left. It is filed as functional.
In assay [10] the test system is Eimeria maxima. The assay can be described thus: Anticoccidial activity against Eimeria maxima in chickens assessed as reduction of oocysts at 12.5 ppm measured after 8 days by ExMAC assay relative to untreated control. It is filed as functional. Also on record: scale not given: the % may be the effect or the level left.
Assay [11] relates to Eimeria acervulina. The experiment in a line: Anticoccidial activity against Eimeria acervulina in chickens assessed as reduction of oocysts at 25 ppm measured after 8 days by ExMAC assay relative to untreated control. It is filed as functional. More on the design: scale not given: the % may be the effect or the level left.
The test system of assay [12] is Eimeria maxima. The experiment in a line: Anticoccidial activity against Eimeria maxima in chickens assessed as reduction of oocysts at 25 ppm measured after 8 days by ExMAC assay relative to untreated control. It counts as functional. Also on record: scale not given: the % may be the effect or the level left.
Assay [13] deals with Eimeria mitis. The assay can be described thus: Anticoccidial activity against Eimeria mitis in chickens assessed as reduction of oocysts at 12.5 ppm measured after 8 days by ExMAC assay relative to untreated control. It counts as functional. Also on record: scale not given: the % may be the effect or the level left.
For assay [14], the system named is Eimeria tenella. The experiment in a line: Anticoccidial activity against Eimeria tenella in chickens assessed as reduction of oocysts at 10 ppm measured after 8 days by ExMAC assay relative to untreated control. It is filed as functional. More on the design: scale not given: the % may be the effect or the level left.
Assay [15] concerns Eimeria acervulina. The experiment in a line: Anticoccidial activity against Eimeria acervulina in chickens assessed as reduction of oocysts at 8 ppm measured after 8 days by ExMAC assay relative to untreated control. Also on record: scale not given: the % may be the effect or the level left. It counts as functional.
The subject of assay [16] is Eimeria maxima. The assay can be described thus: Anticoccidial activity against Eimeria maxima in chickens assessed as reduction of oocysts at 8 ppm measured after 8 days by ExMAC assay relative to untreated control. It is filed as functional. More on the design: scale not given: the % may be the effect or the level left.
Assay [17] relates to Eimeria mitis. The assay can be described thus: Anticoccidial activity against Eimeria mitis in chickens assessed as reduction of oocysts at 25 ppm measured after 8 days by ExMAC assay relative to untreated control. It is filed as functional. More on the design: scale not given: the % may be the effect or the level left.
Assay [18] has as its system Eimeria tenella. The experiment in a line: Anticoccidial activity against Eimeria tenella in chickens assessed as reduction of oocysts at 12.5 ppm measured after 8 days by ExMAC assay relative to untreated control. It is filed as functional. Also on record: scale not given: the % may be the effect or the level left.
The test system of assay [19] is Eimeria maxima. The experiment in a line: Anticoccidial activity against Eimeria maxima in chickens assessed as reduction of oocysts at 10 ppm measured after 8 days by ExMAC assay relative to untreated control. It is filed as functional. Also on record: scale not given: the % may be the effect or the level left.
In assay [20] the test system is Eimeria tenella. The experiment in a line: Anticoccidial activity against Eimeria tenella in chickens assessed as reduction of oocysts at 8 ppm measured after 8 days by ExMAC assay relative to untreated control. Also on record: scale not given: the % may be the effect or the level left. It is filed as functional.
Assay [21] relates to Eimeria maxima. The assay can be described thus: Anticoccidial activity against Eimeria maxima in chickens assessed as reduction of oocysts at 6 ppm measured after 8 days by ExMAC assay relative to untreated control. It counts as functional. More on the design: scale not given: the % may be the effect or the level left.
Assay [22] concerns Eimeria acervulina. The experiment in a line: Anticoccidial activity against Eimeria acervulina in chickens assessed as reduction of oocysts at 10 ppm measured after 8 days by ExMAC assay relative to untreated control. More on the design: scale not given: the % may be the effect or the level left. It is filed as functional.
In assay [23] the test system is Eimeria acervulina. The experiment in a line: Anticoccidial activity against Eimeria acervulina in chickens assessed as reduction of oocysts at 6 ppm measured after 8 days by ExMAC assay relative to untreated control. It counts as functional. Also on record: scale not given: the % may be the effect or the level left.
Assay [24] concerns Eimeria mitis. The experiment in a line: Anticoccidial activity against Eimeria mitis in chickens assessed as reduction of oocysts at 6 ppm measured after 8 days by ExMAC assay relative to untreated control. More on the design: scale not given: the % may be the effect or the level left. It counts as functional.
The test system of assay [25] is Eimeria mitis. The assay can be described thus: Anticoccidial activity against Eimeria mitis in chickens assessed as reduction of oocysts at 10 ppm measured after 8 days by ExMAC assay relative to untreated control. It counts as functional. More on the design: scale not given: the % may be the effect or the level left.

Consider `NC(=O)c1ccn2c(-c3ccnc(N)n3)c(-c3ccc(F)cc3)nc2c1`, for which the Activity in the assay with Eimeria acervulina [1] was <50%; in the assay with Eimeria tenella [2], 80%; in the assay on Eimeria mitis [3], <50%; in the assay on Eimeria maxima [5], 50%. Also, in assay [4], 1.8 nM corresponded to half-maximal inhibition (IC50).
As for `CN1CCC(c2ccn3c(-c4ccnc(N)n4)c(-c4ccc(F)cc4)nc3c2)CC1`, the Activity was 100% with Eimeria acervulina [6]; 100% with Eimeria tenella [7]; 100% in the assay on Eimeria tenella [8]; 80% in the assay with Eimeria mitis [9]; 100% in the assay on Eimeria maxima [10]; 100% in the assay with Eimeria acervulina [11]. In addition, the Activity amounted to 100% in the assay with Eimeria maxima [12]; 100% in the assay on Eimeria mitis [13]; 100% in the assay with Eimeria tenella [14]; 80% in the assay on Eimeria acervulina [15]; 100% in the assay with Eimeria maxima [16]; 100% with Eimeria mitis [17]. The Activity in the assay on Eimeria tenella [18] came to 100%; with Eimeria maxima [19] it was 100%; in the assay with Eimeria tenella [20] it was 100%; with Eimeria maxima [21], 100%; in the assay with Eimeria acervulina [22], 100%; in the assay with Eimeria acervulina [23] it was 80%. The Activity with Eimeria mitis [24] was 80%; in the assay on Eimeria mitis [25], 100%. The same compound gave an IC50 in assay [4] of 0.044 nM.
With `CCN1CCC(c2ccn3c(-c4ccnc(N)n4)c(-c4ccc(F)cc4)nc3c2)CC1`, the Activity in the assay on Eimeria acervulina [6] came out at 80%; in the assay with Eimeria tenella [7] it was 100%; in the assay on Eimeria tenella [8], 100%; in the assay on Eimeria mitis [9] it was 80%; in the assay on Eimeria maxima [10] it was 100%; in the assay on Eimeria acervulina [11] it was 100%. For the same compound, the Activity came out at 100% in the assay with Eimeria maxima [12]; 100% in the assay with Eimeria mitis [13]; 100% in the assay on Eimeria tenella [14]; 80% in the assay on Eimeria acervulina [15]; 100% in the assay with Eimeria maxima [16]; 100% in the assay on Eimeria mitis [17]. Also, the Activity in the assay with Eimeria tenella [18] is 100%; in the assay with Eimeria maxima [19] it was 100%; with Eimeria tenella [20], 100%; in the assay with Eimeria maxima [21] it was <50%; in the assay with Eimeria acervulina [22], 80%; with Eimeria acervulina [23], <50%. The Activity in the assay with Eimeria mitis [24] and in the assay with Eimeria mitis [25] was 80% each time. In assay [4], the IC50 came out at 0.11 nM.

What is called IC50 is the concentration needed to halve the response being measured.
